Laboratory results taken from patent US7759337B2, “Phthalazine compounds and methods of use” (Amgen Inc., priority 2005, dated 2010).

system: production of TNF by monocytes activated with bacterial lipopolysaccharide (LPS); test: Lipopolysaccharide-activated monocyte TNF production assay; format: cell-based; settings: Homo sapiens; whole blood monocyte assay (LPS induced TNF release)
Method in brief: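 Adherent human PBMC-derived monocytes preincubated 60 min with nine two-fold compound dilutions, then stimulated with E. coli K532 LPS (30 ng/mL in the added medium) for 4 h at 37 °C. Supernatant TNF measured by sandwich ELISA; IC50 is the compound concentration halving TNF production, from second-order polynomial fits.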

SMILES	IC50 [µM]
Cc1ccc(C(=O)NC2CC2)cc1-c1ccc2c(N3CCN(C)CC3)nncc2c1 [Example 23, N-cyclopropyl-4-methyl-3-(1-(4-methylpiperazin-1-yl)phthalazin-6-yl)benzamide]	≤ 5
COc1nncc2cc(-c3cc(C(N)=O)ccc3C)ccc12 [Example 118, 3-(1-methoxyphthalazin-6-yl)-4-methylbenzamide]	≤ 5
Cc1ccc(C(=O)NC2CC2)cc1-c1ccc2c(N3CCCC[C@@H]3C)nncc2c1 [Example 97, N-cyclopropyl-4-methyl-3-{1-[(2S)-2-methylpiperidin-1-yl]phthalazin-6-yl}benzamide]	≤ 5
CNc1noc2c(-c3ccc4c(O[C@@H](C)COC)nncc4c3)c(C)ccc12 [Example 330, N,6-dimethyl-7-(1-(((1S)-1-methyl-2-(methyloxy)ethyl)oxy)-6-phthalazinyl)-1,2-benzisoxazol-3-amine]	≤ 5
Cc1ccc(C(=O)NC2CC2)cc1-c1ccc2c(-c3ccc(Cl)cc3C)nncc2c1 [Example 257, 3-[1-(4-chloro-2-methylphenyl)phthalazin-6-yl]-N-cyclopropyl-4-methylbenzamide]	≤ 5
CCNC(=O)c1ccc(C)c(-c2ccc3c(C(C)C)nncc3c2)c1 [Example 363, N-ethyl-3-(1-isopropylphthalazin-6-yl)-4-methylbenzamide]	≤ 5
CCOC(=O)c1ccc(C)c(-c2ccc3c(NC(C)C)nncc3c2)c1 [Example 138, ethyl 3-[1-(isopropylamino)phthalazin-6-yl]-4-methylbenzoate]	≤ 5
Cc1ccc(C(=O)NC2CC2)cc1-c1ccc2c(-c3ccc(Cl)cc3)nncc2c1 [Example 209, 3-[1-(4-chlorophenyl)phthalazin-6-yl]-N-cyclopropyl-4-methylbenzamide]	≤ 5
Fc1ccc(Oc2ccc3c(-c4cncnc4)nncc3c2)cc1 [Example 351, 6-(4-fluorophenoxy)-1-pyrimidin-5-ylphthalazine]	≤ 5
Cc1ccc2c(NC3CC3)noc2c1-c1ccc2c(NC(C)C)nncc2c1 [Example 370, 6-[3-(cyclopropylamino)-6-methyl-1,2-benzisoxazol-7-yl]-N-isopropylphthalazin-1-amine]	≤ 5
O=C(NC1CC1)c1ccc(Cl)c(-c2ccc3c(N4CCOCC4)nncc3c2)c1 [Example 38, 4-chloro-N-cyclopropyl-3-(1-morpholinophthalazin-6-yl)benzamide]	≤ 5
Cc1ccc(C(N)=O)cc1-c1ccc2c(N3CCS(=O)(=O)CC3)nncc2c1 [Example 127, 3-[1-(1,1-dioxidothiomorpholin-4-yl)phthalazin-6-yl]-4-methylbenzamide]	≤ 5
Cc1cc(S(N)(=O)=O)ccc1-c1nncc2cc(Oc3ccc(F)cc3)ccc12 [Example 364, 4-[6-(4-fluorophenoxy)phthalazin-1-yl]-3-methylbenzenesulfonamide]	≤ 5
COc1ncccc1-c1nncc2cc(-c3cc(C(N)=O)ccc3C)ccc12 [Example 228, 3-[1-(2-methoxypyridin-3-yl)phthalazin-6-yl]-4-methylbenzamide]	≤ 5
Cc1ccc(C(=O)NC2CC2)cc1-c1ccc2c(NC3CCC(O)CC3)nncc2c1 (stereo not drawn) [Example 312, N-cyclopropyl-3-{1-[(4-hydroxycyclohexyl)amino]phthalazin-6-yl}-4-methylbenzamide]	≤ 5
CC[C@@H]1CCCCN1c1nncc2cc(-c3cc(C(=O)NC4CC4)ccc3C)ccc12 [Example 130, N-cyclopropyl-3-{1-[(2R)-2-ethylpiperidin-1-yl]phthalazin-6-yl}-4-methylbenzamide]	≤ 5
Cc1ccc(C(=O)NC2CC2)cc1-c1ccc2c(N3CCN(C(=O)Nc4ccccc4)CC3)nncc2c1 [Example 124, 4-(6-{5-[(cyclopropylamino)carbonyl]-2-methylphenyl}phthalazin-1-yl)-N-phenylpiperazine-1-carboxamide]	≤ 5
Cc1cnc(C(=O)NC2CC2)cc1-c1ccc2c(N3C[C@@H](C)OC[C@H]3C)nncc2c1 [Example 113, N-cyclopropyl-4-{1-[(2R,5R)-2,5-dimethylmorpholin-4-yl]phthalazin-6-yl}-5-methylpyridine-2-carboxamide]	≤ 5
Cc1ccc(C(=O)NC2CC2)cc1-c1ccc2c(N3C[C@H](C)OC[C@@H]3C)nncc2c1 [Example 123, N-cyclopropyl-3-{1-[(2S,5S)-2,5-dimethylmorpholin-4-yl]phthalazin-6-yl}-4-methylbenzamide]	≤ 5
CNc1noc2c(-c3ccc4c(-c5cccnc5C)nncc4c3)c(C)ccc12 [Example 247, N,6-dimethyl-7-[1-(2-methylpyridin-3-yl)phthalazin-6-yl]-1,2-benzisoxazol-3-amine]	≤ 5
Cc1ccc(C(=O)NC2CC2)cc1-c1ccc2c(N[C@H](C)c3ccccc3)nncc2c1 [Example 193, N-cyclopropyl-4-methyl-3-(1-{[(1R)-1-phenylethyl]amino}phthalazin-6-yl)benzamide]	≤ 5
Cc1ccc2c(N)noc2c1-c1ccc2c(N3CCOC[C@@H]3C)nncc2c1 [Example 387, 6-methyl-7-{1-[(3S)-3-methylmorpholin-4-yl]phthalazin-6-yl}-1,2-benzisoxazol-3-amine]	≤ 5
Cc1ccc(C(=O)NC2CC2)cc1-c1ccc2c(N3CCNC(=O)[C@@H]3C)nncc2c1 [Example 271, N-cyclopropyl-4-methyl-3-{1-[(2S)-2-methyl-3-oxopiperazin-1-yl]phthalazin-6-yl}benzamide]	≤ 5
Cc1ccc(C(=O)NC2CC2)cc1-c1ccc2c(N3CCCOCC3)nncc2c1 [Example 266, N-cyclopropyl-4-methyl-3-[1-(1,4-oxazepan-4-yl)phthalazin-6-yl]benzamide]	≤ 5
Cc1ccc(C(=O)NC2CC2)cc1-c1ccc2c(N3CCN4C(=O)CC[C@H]4C3)nncc2c1 [Example 102, 3-{1-[(8aS)-6-oxohexahydropyrrolo[1,2-a]pyrazin-2(1H)-yl]phthalazin-6-yl}-N-cyclopropyl-4-methylbenzamide]	≤ 5
Cc1ccc(Oc2nncc3cc(-c4cc(C(N)=O)ccc4C)ccc23)c(C)c1 [Example 321, 3-[1-(2,4-dimethylphenoxy)phthalazin-6-yl]-4-methylbenzamide]	≤ 5
Cc1ccc(C(=O)NC2CC2)cc1-c1ccc2c(N3CCOC[C@H]3C)nncc2c1 [Example 75, N-Cyclopropyl-4-methyl-3-{1-[(3R)-3-methylmorpholin-4-yl]phthalazin-6-yl}benzamide]	≤ 5
Cc1ccc(C(=O)NC2CC2)cc1-c1ccc2c(C3=CCN(C(=O)OC(C)(C)C)CC3)nncc2c1 [Example 153, tert-butyl 4-(6-{5-[(cyclopropylamino)carbonyl]-2-methylphenyl}phthalazin-1-yl)-3,6-dihydropyridine-1(2H)-carboxylate]	≤ 5
Cc1ccc(C(=O)NC2CC2)cc1-c1ccc2c(N3C[C@@H](C)OC[C@H]3C)nncc2c1 [Example 174, N-cyclopropyl-3-{1-[(2R,5R)-2,5-dimethylmorpholin-4-yl]phthalazin-6-yl}-4-methylbenzamide]	≤ 5
CCOC(=O)c1ccc(C)c(-c2ccc3c(C(C)C)nncc3c2)c1 [Example 362, ethyl 3-(1-isopropylphthalazin-6-yl)-4-methylbenzoate]	≤ 5
